Earlier results, collected in patent US20040131543A1, “Radiopharmaceuticals and radioactive microspheres for locoregional ablation of abnormal tissues” (priority 2002, published 2004).

Settings: single intratracheal instillation, rats

[Cl][Gd]([Cl])[Cl] [GdCl3, Gd chloride]
Half-life of Gd deposited in lung tissue: extremely long half-life
